Data: US20240287138A1, “CYCLIC PEPTIDES FOR INHIBITING TNF RECEPTOR 1 ACTIVITY” (Merck Sharp & Dohme LLC, priority 2023, published 2024)
pKd: −log10 of the molar value. Numbered stars: 1 amine (or outer) side, 2 acyl side, 3 side chain; on linkers, the order of the positions; unused ones are H or OH. Square brackets hold non-standard residues; d marks the D form. Peptide text beside a SMILES is read from it. Trp(βS-Me,7-OMe) = COc1cccc2c([C@H](C)[C@H](N)C(=O)O)c[nH]c12; Trp(7-CN) = N#Cc1cccc2c(C[C@H](N)C(=O)O)c[nH]c12; Phe(4-CONH2) = NC(=O)c1ccc(C[C@H](N)C(=O)O)cc1; Phe(4-COOH) = N[C@@H](Cc1ccc(C(=O)O)cc1)C(=O)O; Pip(5R-OH) = O=C(O)[C@@H]1CC[C@@H](O)CN1; X1 = O=C([C@@H]1CC[C@H](N[*:1])C1)[*:2]; 4Pal = N[C@@H](Cc1ccncc1)C(=O)O; dHyp = O=C(O)[C@H]1C[C@H](O)CN1; hSer = N[C@@H](CCO)C(=O)O; αMeS = C[C@](N)(CO)C(=O)O; Sar = CNCC(=O)O

Legend:
[1] = biological target: T1, human soluble TNFR1 (sTNFR1) (Homo sapiens, UniProt P19438); test: Human sTNFR1-peptide displacement assay (LanthaScreen Eu TR-FRET binding assay)
T1 construct: made in house; host or cells: Sf21 (baculovirus)
T1 sequence (P19438 with tags, fused parts or gaps): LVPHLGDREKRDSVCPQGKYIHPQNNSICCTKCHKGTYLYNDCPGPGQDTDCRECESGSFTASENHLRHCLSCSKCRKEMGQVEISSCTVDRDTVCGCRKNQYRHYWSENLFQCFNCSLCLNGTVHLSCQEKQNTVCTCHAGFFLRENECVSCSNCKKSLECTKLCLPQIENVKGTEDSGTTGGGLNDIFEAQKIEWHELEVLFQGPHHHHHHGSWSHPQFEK
Method in brief: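 Readout is the 665/615 nm TR-FRET ratio (Eu anti-His donor, streptavidin-Alexa647 acceptor), normalized to DMSO and saturating displacer, fit by Morrison-based five-parameter logistic for Kd^app. His-tagged sTNFR1 (1-211) prebound to 100 nM biotinylated peptide SEQ ID NO.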

[2] = biological target: T2, human TNFR1 extracellular domain (ECD) protein (Homo sapiens, UniProt P19438); test: SPR binding affinity to captured human TNFR1 ECD
T2 construct: HRV 3C protease cleavage site (C); 6His (C, cleaved yes); made in house; host or cells: Sf21 insect cells (baculovirus), secreted
T2 sequence (P19438 30-211): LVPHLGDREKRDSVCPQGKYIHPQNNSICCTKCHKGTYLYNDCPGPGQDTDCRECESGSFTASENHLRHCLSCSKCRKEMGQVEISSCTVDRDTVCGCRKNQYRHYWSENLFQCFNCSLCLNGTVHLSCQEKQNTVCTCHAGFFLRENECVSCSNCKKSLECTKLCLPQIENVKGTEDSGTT
Method in brief: (§1)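 Read-out: kon, koff and derived affinity from SPR response units. Human TNFR1 and TNFR2 ECD, Avi-tag biotinylated with BirA, captured on a streptavidin surface; peptides injected under laminar flow in HEPES-saline with EDTA, P20 and 2% DMSO.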

human TNFR2 ECD protein = biological target: T3, human TNFR2 ECD protein (Homo sapiens, UniProt P20333); test: SPR off-target binding (selectivity) to human TNFR2 ECD
T3 construct: HRV 3C protease cleavage site (C); 6His (C, cleaved yes); made in house; host or cells: Sf21 insect cells (baculovirus), secreted
T3 sequence (P20333 23-257): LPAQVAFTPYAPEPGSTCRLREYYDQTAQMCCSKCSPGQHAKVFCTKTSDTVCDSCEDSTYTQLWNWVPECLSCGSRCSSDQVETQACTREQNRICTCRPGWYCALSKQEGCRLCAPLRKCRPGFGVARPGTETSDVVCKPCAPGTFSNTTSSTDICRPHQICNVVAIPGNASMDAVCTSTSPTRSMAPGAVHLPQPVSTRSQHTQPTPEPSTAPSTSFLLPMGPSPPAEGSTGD
Method in brief: as §1

COCC[C@@H]1NC(=O)[C@@H]2CC[C@@H](C2)NC(=O)[C@H]([C@@H](C)c2c[nH]c3c(OC)cccc23)NC(=O)CN(C)C(=O)[C@H](Cc2ccc(C(N)=O)cc2)NC(=O)[C@H](Cc2ccc(C(N)=O)cc2)NC(=O)[C@](C)(CO)NC(=O)[C@H](Cc2c[nH]c3c(C#N)cccc23)NC(=O)[C@H](Cc2ccc(C(=O)O)cc2)NC(=O)[C@H](CC(N)=O)NC(=O)[C@H]2C[C@H](O)CN2C(=O)[C@H](Cc2c[nH]c3ccccc23)NC(=O)[C@@H]2CC[C@@H](O)CN2C(=O)[C@H](Cc2ccncc2)NC1=O [SEQ ID NO. 194] (cyclo([4Pal][Pip(5R-OH)]W[dHyp]N[Phe(4-COOH)][Trp(7-CN)][αMeS][Phe(4-CONH2)][Phe(4-CONH2)][Sar][Trp(βS-Me,7-OMe)][X1][hSer](Me)))
pKd [1]: 10.30 | pKd [2]: 10.40 | pKd (human TNFR2 ECD protein): < 6.00
